We go through 2 molecules from PubChem BioAssay AID2250 (Sanford-Burnham Center for Chemical Genomics, 2010).

The test deals with MCF-7/NOD1 cells, GM-Tri-DAP induced IL-8 secretion. Put plainly: inhibition of NOD1-driven IL-8 release, SAR follow-up, MCF-7/NOD1 cells, GM-Tri-DAP stimulus (AID 2250).

Activity calls are given as the source filed them. How the calls were made is not given here.

Take `O=C(O)c1c(NC(=O)N2CCOCC2)sc2c1CCCC2`: the IC50 is > 25 µM (inactive).

As for `Cc1ccc(S(=O)(=O)n2c(N)nc3cc(C)c(C)cc32)cc1`, the IC50 is > 5 µM (inactive).
